Values quoted from earlier work, collected in US20200000714A1, “OPHTHALMIC COMPOSITION COMPRISING PVP-I” (MEDIVIS S.R.L., priority 2016, published 2020).
Read-outs that look alike come from different tables or passages of the source.

Substance: Povidone-iodine [PVP-I]
- free molecular iodine I2 concentration (10% solutions of PVP-I): about 1 ppm
- free molecular iodine I2 concentration (solutions with PVP-I concentration of 0.1%): about 20 ppm
